Reference: patent publication US20060264419A1 (priority 2003, published 2006)

Experiments:
5-HT2A receptors = 5-HT2A receptors (Rattus norvegicus, UniProt P14842); assay: in-vitro affinity to 5-HT2A receptors, displacement of [3H]ketanserine (Example A1); format: binding; settings: read-out: HT2A IC50
Description: The 5-HT2A receptors are exposed both to [^3H]ketanserine (a substance which is known for its affinity to the receptor) and also to the test compound. The decrease in the affinity of [^3H]ketanserine to the receptor is an indication of the affinity of the test substance to the 5-HT2A receptor.

5 HT2C receptor = molecular target: T1, 5 HT2C receptor (Homo sapiens, UniProt P28335); assay: affinity to the 5 HT2C receptor; format: binding
T1 sequence (P28335 33-458): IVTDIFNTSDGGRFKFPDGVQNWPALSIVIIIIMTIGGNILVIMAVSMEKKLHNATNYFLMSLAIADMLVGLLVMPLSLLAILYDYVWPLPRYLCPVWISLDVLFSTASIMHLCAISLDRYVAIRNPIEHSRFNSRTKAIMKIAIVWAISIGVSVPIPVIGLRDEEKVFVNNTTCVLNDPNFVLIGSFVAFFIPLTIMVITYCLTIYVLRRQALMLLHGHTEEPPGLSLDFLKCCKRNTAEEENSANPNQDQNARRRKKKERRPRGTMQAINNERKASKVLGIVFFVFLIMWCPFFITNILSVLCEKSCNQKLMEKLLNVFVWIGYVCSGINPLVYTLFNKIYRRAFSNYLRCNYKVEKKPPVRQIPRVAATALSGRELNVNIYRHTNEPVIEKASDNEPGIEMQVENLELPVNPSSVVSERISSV

Chain of 5-HT2A receptors (P14842 whole entry): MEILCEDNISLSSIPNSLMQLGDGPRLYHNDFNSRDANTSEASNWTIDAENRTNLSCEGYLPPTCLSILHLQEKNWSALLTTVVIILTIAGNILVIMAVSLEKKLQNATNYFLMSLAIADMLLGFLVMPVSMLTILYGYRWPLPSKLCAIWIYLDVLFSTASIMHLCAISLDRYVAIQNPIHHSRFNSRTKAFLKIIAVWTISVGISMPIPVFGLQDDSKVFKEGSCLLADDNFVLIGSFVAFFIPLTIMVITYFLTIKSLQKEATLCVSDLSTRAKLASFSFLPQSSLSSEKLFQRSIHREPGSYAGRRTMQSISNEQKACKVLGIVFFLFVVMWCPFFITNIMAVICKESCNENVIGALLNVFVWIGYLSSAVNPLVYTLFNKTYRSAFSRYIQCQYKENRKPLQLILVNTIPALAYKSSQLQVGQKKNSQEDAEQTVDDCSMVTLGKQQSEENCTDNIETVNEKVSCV

Compound	IC50 (5-HT2A receptors) [nM]	IC50 (5 HT2C receptor) [nM]
CCN(CC)Cc1cnn(-c2ccc(-c3ccccc3)cc2)c1-c1ccccc1F [Example 897, [1-Biphenyl-4-yl-5-(2-fluorophenyl)-1H-pyrazol-4-ylmethyl]diethylamine]	11	1000
CN1CCN(Cc2cnn(-c3ccc(-c4ccccc4F)cc3)c2-c2ccc(F)cc2)CC1 [Example 1013, 1-[1-(2′-Fluorobiphenyl-4-yl)-5-(4-fluoro-phenyl)-1H-pyrazol-4-ylmethyl]-4-methyl-piperazine]	210	1000
CC(C)N1CCN(Cc2cnn(-c3ccc(-c4ccc(F)cc4)cc3)c2-c2cccc(Cl)c2)CC1 [Example 943, 1-[5-(3-Chlorophenyl)-1-(4′-fluorobiphenyl-4-yl)-1H-pyrazol-4-ylmethyl]-4-isopropylpiperazine]	41	1000
CN1CCN(Cc2cnn(-c3ccc(-c4ccsc4)cc3)c2-c2ccco2)CC1 [Example 891, 1-[5-Furan-2-yl-1-(4-thiophen-3-ylphenyl)-1H-pyrazol-4-ylmethyl]-4-methylpiperazine]	4.5	210
c1ccc(-c2ccc(-n3ncc(CNCc4ccccn4)c3-c3ccccc3)cc2)cc1 [Example 918, (1-Biphenyl-4-yl-5-phenyl-1H-pyrazol-4-yl-methyl)pyridin-2-ylmethylamine]	23	1000
CN(C)CCc1cnn(-c2ccc(-c3ccc(F)cc3)cc2)c1-c1ccccc1F [Example 890, {2-[1-(4′-Fluorobiphenyl-4-yl)-5-(2-fluoro-phenyl)-1H-pyrazol-4-yl]ethyl}dimethylamine]	1.5	27.4
NCCNCc1cnn(-c2ccc(-c3ccccc3)cc2)c1-c1ccccc1F [Example 894, N-[1-Biphenyl-4-yl-5-(2-fluorophenyl)-1H-pyrazol-4-ylmethyl]ethane-1,2-diamine]	6.5	450
CN1CCC(N(C)Cc2cnn(-c3ccc(-c4ccccc4)cc3)c2-c2ccccc2F)C1 (stereo not shown) [Example 907, [1-Biphenyl-4-yl-5-(2-fluorophenyl)-1H-pyrazol-4-ylmethyl]methyl-(1-methylpyrrolidin-3-yl)amine]	16	84
